This is an account of results in patent US6025365A, “Chelerythrine and radiation combined tumor therapy” (Arch Development Corp., priority 1997, dated 2000).

The subject of series [1] is SQ20-B cells. Kind of series: Clonogenic survival / colony formation assay. The series is classed as cell-based, human. The protocol:
FIG. 2. Chelerythrine chloride enhanced IR-mediated cell killing through divisional death. Clonogenic survival was measured following exposure to increasing concentrations of chelerythrine and ionizing radiation. Cells were plated at cell numbers between about 500 cells/plate and about 2000 cells/plate and treated with 0 μM, 0.5 μM, or 1.0 μM chelerythrine chloride for 30 minutes prior to irradiation. After 2 weeks the colonies were scored for survival if they were composed of more than 50 cells. Results represent the mean of three individual experiments with duplicate or triplicate determinants. Error bars represent +/- the standard error of the means (SEM).
FIG. 5C. […] Closed circles represent radiation alone; closed squares represenet addition of 20 μM C2-Ceramide 30 minutes prior to x-ray.
Exponentially growing SQ20B cultures were trypsinized using 0.05% trypsin+0.02% EDTA. Cells (100 to 50,000) were plated in 100 mm tissue culture dishes. Chelerythrine or C2-ceramide was added 4 hours after plating and irradiated for 30 minutes after the addition of chelerythrine or C2-ceramide. The cells were irradiated using a GE Maxitron 250 x-ray generator operating at 250 kV and 26 mA with a dose rate of 114 cGy/min. After 12 days the cells were fixed and stained with crystal violet following standard procedures (Chmura et al., 1996a; 1996b). Colonies of >50 cells were scored as survivors.
Clonogenic survival was measured following increasing concentrations of chelerythrine chloride alone (0.5-1.5 μM), IR alone (1-9 Gy), or the combined treatment of cells with chelerythrine and IR. […] At a concentration of 500 nM, chelerythrine decreased cell survival to about 80% of untreated control cells (about 20% cell death). The combined treatment of cells with 500 nM of chelerythrine 30 minutes prior to treatment with 3 Gy of radiation decreased cell survival to about 30% of untreated cells (about 70% cell death). […] Cell shrinkage and nuclear condensation, characteristic of apoptosis, were not observed at these concentrations of chelerythrine and IR.

Series [2] relates to neutral sphingomyelinase. Kind of series: Mixed micellar assay, neutral sphingomyelinase activity in treated SQ-20B cells. The conditions noted are these: 5 μM chelerythrine 30 minutes then 10 Gy; within 5 minutes of IR. Format: cell-based, human. The protocol: FIG. 5A. […] The mixed micellar assay for sphingomyelinase activity was used to quantitate increased enzymatic activity.
The mixed micellar sphingomyelinase assay using ^[14] C labeled sphingomyelin was performed as described (Wiegmann et al., 1994) with minor modifications as described herein. Exponentially growing cells 2×10^7 were treated, collected, and lysed in 200 μl of neutral buffer (20 mM Hepes, pH 7.4; 10 mM MgCl2, 2 mM EDTA, 5 mM DTT, […], 10 mM b-glycerolphosphate, 750 μM ATP, 1 mM PMSF, Leupeptin, Pepstatin, 2% Triton X-100) or an acid buffer (pH=5.5, 2% Triton X-100, 1 mM PMSF, Leupeptin, Pepstatin). After incubation for 5 minutes at 4° C., cells were homogenized by sonication and cell debris were removed by low speed centrifugation (800×g). The protein concentration was measured using the BioRad protein assay system (BioRad). Protein (50 μg) was incubated for 2 hours at 37° C. in a buffer (1 ml final volume) containing 20 mM HEPES, 1 mM MgCl2, and 0.9 μl [N-methyl-^14 C sphingomyelin].

For series [3], the system named is SQ-20B xenografts. The series can be described thus: Histology of SQ-20B xenografts. The series is classed as in vivo, nude mice (human tumor xenograft). The settings on record: combined x-ray and chelerythrine vs IR. The protocol:
Tumors were injected once or twice (day 0 and day 4) with chelerythrine, chelerythrine and 20 Gy (5 Gy/Day) or 20 Gy alone and excised on day 7, fixed in 10% neutral buffered formalin. Tumors were then trimmed and processed in a Tissue Tek II Tissue Processor. Tissues were embedded in paraffin, sectioned and stained with hematoxylin and eosin or with […] of DAPI (4',6-iamidino-2-phenylindole, Sigma D9542, 1 μg/ml in PBT (PBS+1% Triton X-100)), followed by examination for apoptosis and necrosis by light microscopy.
In contrast, 1/16 of the radiation+buffer and 13/43 of the chelerythrine only treated animals regressed to less than 10% of the initial tumor volume. […] Representative sections of non-necrotic areas of tumors were stained with DAPI to detect nuclear changes of apoptosis. Tumor sections were taken at day 7 following treatment with 2 injections of chelerythrine alone, 20 Gy alone, 1 injection of chelerythrine and 20 Gy, or 2 treatments with chelerythrine and 20 Gy. Nuclei from non-necrotic areas of tumors treated with radiation alone appeared rounded and contained a smooth heterachromatin appearance. Few apoptotic nuclei as defined by chromatin margination and nuclear shrinkage could be detected in these areas.
In general terms: Xenograft models place foreign cells or tissue in a host animal.

Where [4] appears, read: 500 nM chelerythrine 30 minutes prior to 3 Gy.

With `COc1ccc2c(c[n+](C)c3c4cc5c(cc4ccc23)OCO5)c1OC` [chelerythrine, 1,2-dimethoxy-12-methyl[1,3]benzodioxolo[5,6-c]phenanthridinium], in series [1] (setting [4]), the “cell death, combined treatment” value was “about 70%” and the “cell survival, combined treatment” value is “about 30 % of untreated cells”. The cytotoxicity at 0.5 µM in series [1] (Homo sapiens, SQ20B, read-out: cell death) is roughly 20%. In addition, the viability at 0.5 µM in series [1] (Homo sapiens, SQ20B, 500 nM chelerythrine alone) was roughly 80%. In addition, in series [2], the “neutral sphingomyelinase activity, x-rays and chelerythrine” value is listed as “about 200 % of control”. Moreover, the “inflammatory response and necrosis in epidermis and muscle” value in series [3] is “did not increase this response”.

One may read the viability as a per cent measure of how many cells are alive, often set against a control. A lower viability goes with more harm to the cells.
